Common to all, as to format: cell-based
In test [1] the test system is HCC827-YVMA cells (human ERBB2 exon20 insertion mutant A775_G776ins YVMA). The test can be described thus: Cell growth inhibition (CellTiter-Glo, 3 days) in HCC827-YVMA. Conditions: 72 h, 3 days after administration. A digest of the protocol: (§1)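 Growth inhibition used a CellTiter-Glo luminescence read-out after 3 days of compound exposure at various concentrations. Cells were plated the day before at 5000/well in RPMI plus 10% FBS. The lines are HCC827 transduced by lentivirus with codon-optimized EGFR ASV or ERBB2 YVMA exon 20 insertions.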

Test [2] deals with HCC827-SVD cells (human EGFR exon 20 insertion mutant D770_N771 insSVD). Put plainly: Cell growth inhibition (CellTiter-Glo, 3 days) in HCC827-SVD. Conditions: 72 h, 3 days after administration. The method, boiled down: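 HCC827 cells carrying lentiviral codon-optimized EGFR D770_N771 insSVD, with endogenous EGFR knocked out by CRISPR (single clone), seeded at 5000 cells/well in RPMI with 10% FBS. Viability read by CellTiter-Glo luminescence.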
A general note: In ATP-based viability assays light output follows the ATP content of the culture.

Test [3] has as its system A431 cells. The test can be described thus: Cell growth inhibition (CellTiter-Glo, 3 days) in A431. Conditions: Homo sapiens, A-431, 72 h, 3 days after administration. A digest of the protocol: (§2)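 HCC827 cells in RPMI/10% FBS and A431 cells in DMEM/10% FBS were seeded at 5000 cells/well and left overnight. Compound was then added over a concentration range for 3 days of incubation, and viability was read by CellTiter-Glo luminescence.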

For test [4], the system named is HCC827 cells. Put plainly: Cell growth inhibition (CellTiter-Glo, 3 days) in HCC827. The following applies: Homo sapiens, 72 h, 3 days after administration. The method, boiled down: as §2
The test system of test [5] is HCC827-ASV cells (human EGFR exon 20 insertion mutant A769_D770insASV). The test can be described thus: Cell growth inhibition (CellTiter-Glo, 3 days) in HCC827-ASV. The following applies: 72 h, 3 days after administration. A digest of the protocol:
as §1

Here are results for 13 molecules from patent US20240398805A1, “QUINAZOLINE DERIVED COMPOUNDS AS EGFR INHIBITORS AND THEIR USES THEREOF” (ACCUTAR BIOTECHNOLOGY INC., priority 2021, published 2024).

Usually GI50 stands for the concentration at which growth is held to half of that of the control. Low values mean more potent growth inhibition, high ones less potent growth inhibition. Take `C=CC(=O)N1CCC(Oc2cc3c(Nc4ccc(Oc5ccnc(N6C[C@@H](C)O[C@@H](C)C6)c5)cc4F)ncnc3cc2OC)CC1` [Example 152, 1-(4-((4-((4-((2-((2R,6S)-2,6-dimethylmorpholino)pyridin-4-yl)oxy)-2-fluorophenyl)amino)-7-methoxyquinazolin-6-yl)oxy)piperidin-1-yl)prop-2-en-1-one]: the GI50 was 60 to 100 nM in test [1]; 60 to 100 nM in test [2]; ≥ 1000 nM in test [3]; 600 to 1000 nM in test [4]; < 30 nM in test [5].
`C=CC(=O)N1CCC(Nc2cc3c(Nc4ccc(Oc5ccnc(-c6cscn6)c5)cc4F)ncnc3cc2OC)CC1` [Compound 41, 1-(4-((4-((2-fluoro-4-((2-(thiazol-4-yl)pyridin-4-yl)oxy)phenyl)amino)-7-methoxyquinazolin-6-yl)amino)piperidin-1-yl)prop-2-en-1-one]: the GI50 in test [1] is < 30 nM; in test [2] it was < 30 nM; in test [3], 300 to 600 nM; in test [4], 60 to 100 nM; in test [5] it was < 30 nM.
Take `C=CC(=O)N1CCC(Nc2cc3c(Nc4ccc(Oc5ccnc(N6CCN(C)CC6)c5)cc4F)ncnc3cc2OC)CC1` [Example 113, 1-(4-((4-((2-fluoro-4-((2-(4-methylpiperazin-1-yl)pyridin-4-yl)oxy)phenyl)amino)-7-methoxyquinazolin-6-yl)amino)piperidin-1-yl)prop-2-en-1-one]: the GI50 in test [1] is < 30 nM; in test [2] it was < 30 nM; in test [3], 600 to 1000 nM; in test [4] it was 30 to 60 nM; in test [5], < 30 nM.
In the case of `C=CC(=O)N1CCC(Nc2cc3c(Nc4ccc(Oc5ccnc(N6CCC(O)CC6)c5)cc4F)ncnc3cc2OC)CC1` [Example 121, 1-(4-((4-((2-fluoro-4-((2-(4-hydroxypiperidin-1-yl)pyridin-4-yl)oxy)phenyl)amino)-7-methoxyquinazolin-6-yl)amino)piperidin-1-yl)prop-2-en-1-one], the GI50 in test [1] is < 30 nM; in test [2] it was < 30 nM; in test [3], ≥ 1000 nM; in test [4], 300 to 600 nM; in test [5] it was < 30 nM.
As for `C=CC(=O)N1CCC(Nc2cc3c(Nc4ccc(Oc5ccnc(NC6COC6)c5)cc4F)ncnc3cc2OC)CC1` [Example 183, 1-(4-((4-((2-fluoro-4-((2-(oxetan-3-ylamino)pyridin-4-yl)oxy)phenyl)amino)-7-methoxyquinazolin-6-yl)amino)piperidin-1-yl)prop-2-en-1-one], the GI50 in test [1], in test [2], in test [3], in test [4] and in test [5] was ≥ 1000 nM throughout.
As for `C=CC(=O)N1CCC(Nc2cc3c(Nc4ccc(Oc5ccnc(N6CC(N(C)C)C6)c5)cc4F)ncnc3cc2OC)CC1` [Example 147, 1-(4-((4-((4-((2-(3-(dimethylamino)azetidin-1-yl)pyridin-4-yl)oxy)-2-fluorophenyl)amino)-7-methoxyquinazolin-6-yl)amino)piperidin-1-yl)prop-2-en-1-one], the GI50 in test [1] was 60 to 100 nM; in test [2], 60 to 100 nM; in test [3], ≥ 1000 nM; in test [4], 100 to 300 nM; in test [5] it was 60 to 100 nM.
Regarding `C=CC(=O)N1CCC(Nc2cc3c(Nc4ccc(Oc5ccn(-c6cnc(OC)c(F)c6)n5)cc4F)ncnc3cc2OC)CC1` [Example 90, 1-(4-((4-((2-fluoro-4-((1-(5-fluoro-6-methoxypyridin-3-yl)-1H-pyrazol-3-yl)oxy)phenyl)amino)-7-methoxyquinazolin-6-yl)amino)piperidin-1-yl)prop-2-en-1-one], the GI50 in test [1] lay within 60 to 100 nM; in test [2] it was 60 to 100 nM; in test [3], 100 to 300 nM; in test [4] it was 60 to 100 nM; in test [5] it was 100 to 300 nM.
In the case of `C=CC(=O)N1CCC(Nc2cc3c(Nc4ccc(Oc5ccn(-c6cccc(OC)n6)n5)cc4F)ncnc3cc2OC)CC1` [Example 58, 1-(4-((4-((2-fluoro-4-((1-(6-methoxypyridin-2-yl)-1H-pyrazol-3-yl)oxy)phenyl)amino)-7-methoxyquinazolin-6-yl)amino)piperidin-1-yl)prop-2-en-1-one], the GI50 in test [1] fell in the range of 60 to 100 nM; in test [2] it was 60 to 100 nM; in test [3], 300 to 600 nM; in test [4] it was 60 to 100 nM; in test [5] it was 60 to 100 nM.
As for `C=CC(=O)N1CCC(Nc2cc3c(Nc4ccc(Oc5ccnc(C(=O)NC)c5)cc4F)ncnc3cc2OC)CC1` [Compound 181, 4-(4-((6-((1-acryloylpiperidin-4-yl)amino)-7-methoxyquinazolin-4-yl)amino)-3-fluorophenoxy)-N-methylpicolinamide], the GI50 in test [1] was < 30 nM; in test [2], < 30 nM; in test [3] it was 100 to 300 nM; in test [4], < 30 nM; in test [5], < 30 nM.
`C=CC(=O)N1CCC(Nc2cc3c(Nc4ccc(Oc5ccnc(NC(C)(C)C)c5)cc4F)ncnc3cc2OC)CC1` [Example 245, 1-(4-((4-((4-((2-(tert-butylamino)pyridin-4-yl)oxy)-2-fluorophenyl)amino)-7-methoxyquinazolin-6-yl)amino)piperidin-1-yl)prop-2-en-1-one]: the 50% growth inhibitory concentration (GI50) in test [1] is < 30 nM; in test [2] it was 30 to 60 nM; in test [3], 300 to 600 nM; in test [4], 100 to 300 nM; in test [5], < 30 nM.
Consider `C=CC(=O)N1CCC(Nc2cc3c(Nc4ccc(Oc5ccnc(N6CC7(CCOCC7)C6)c5)cc4F)ncnc3cc2OC)CC1` [Example 204, 1-(4-((4-((4-((2-(7-oxa-2-azaspiro[3.5]nonan-2-yl)pyridin-4-yl)oxy)-2-fluorophenyl)amino)-7-methoxyquinazolin-6-yl)amino)piperidin-1-yl)prop-2-en-1-one], for which the concentration for 50% growth inhibition (GI50) in test [1] was < 30 nM; in test [2] it was < 30 nM; in test [3], 100 to 300 nM; in test [4] it was 60 to 100 nM; in test [5] it was < 30 nM.
Take `C=CC(=O)N1CCC(Nc2cc3c(Nc4ccc(Oc5ccnc(N6CC7(CC(O)C7)C6)c5)cc4F)ncnc3cc2OC)CC1` [Example 175, 1-(4-((4-((2-fluoro-4-((2-(6-hydroxy-2-azaspiro[3.3]heptan-2-yl)pyridin-4-yl)oxy)phenyl)amino)-7-methoxyquinazolin-6-yl)amino)piperidin-1-yl)prop-2-en-1-one]: the GI50 in test [1] was 30 to 60 nM; in test [2], 30 to 60 nM; in test [3] it was ≥ 1000 nM; in test [4], 600 to 1000 nM; in test [5] it was 30 to 60 nM.
Regarding `C=CC(=O)N1CCC(Nc2cc3c(Nc4ccc(Oc5ccnc(N6CC[C@@H](OC)C6)c5)cc4F)ncnc3cc2OC)CC1` [Example 114, (R)-1-(4-((4-((2-fluoro-4-((2-(3-methoxypyrrolidin-1-yl)pyridin-4-yl)oxy)phenyl)amino)-7-methoxyquinazolin-6-yl)amino)piperidin-1-yl)prop-2-en-1-one], the GI50 was 100 to 300 nM in test [1]; 100 to 300 nM in test [2]; ≥ 1000 nM in test [3]; 300 to 600 nM in test [4]; 60 to 100 nM in test [5].
